Reference: PubChem BioAssay AID192 (DTP/NCI, 2004)
Several values for one entry are separate records, joined by “and”; a condition that tells them apart may be missing. Equal values may be shown once. Inconclusive results and toxic doses are left out. Rule for the calls: active = survival T/C of 150% or more; inactive = T/C below 125% in these data.

Tested on: BDF1 mice, B16 melanoma ip, median survival T/C
Test: NCI In Vivo Anticancer Drug Screen. Data for tumor model B16 Melanoma (intraperitoneal) in B6D2F1 (BDF1) mice
Conditions: endpoint: median survival time, higher = longer survival
Outline: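 Compounds were tested in mice carrying transplantable tumors. Survival or tumor size was recorded, and each value is the treated-group measurement (T) divided by that of the vehicle-treated control group (C).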

[1] = dose: 25.0 mg/kg/injection, schedule: Q01DX009 (ip), vehicle: saline with Tween-80
[2] = dose: 50.0 mg/kg/injection, schedule: Q01DX009 (ip), vehicle: saline with Tween-80
[3] = dose: 5.0 mg/kg/injection, schedule: Q01DX009 (ip), vehicle: Klucel (hydroxypropylcellulose) (HPC)
[4] = dose: 10.0 mg/kg/injection, schedule: Q01DX009 (ip), vehicle: Klucel (hydroxypropylcellulose) (HPC)
[5] = dose: 12.5 mg/kg/injection, schedule: Q01DX009 (ip), vehicle: saline
[6] = dose: 25.0 mg/kg/injection, schedule: Q01DX009 (ip), vehicle: saline
[7] = dose: 100.0 mg/kg/injection, schedule: Q01DX009 (ip), vehicle: Klucel (hydroxypropylcellulose) (HPC)
[8] = dose: 200.0 mg/kg/injection, schedule: Q01DX009 (ip), vehicle: Klucel (hydroxypropylcellulose) (HPC)

Measured: T/C

O=C1C(F)=C(N2CC2)C(=O)C(N2CCOCC2)=C1N1CC1
inactive: dose: 0.75 mg/kg/injection, schedule: Q01DX009 (ip), vehicle: saline 118 % of control | dose: 1.5 mg/kg/injection, schedule: Q01DX009 (ip), vehicle: saline 108 % of control | dose: 3.0 mg/kg/injection, schedule: Q01DX009 (ip), vehicle: saline 100 % of control

Cc1nc2[nH]c(=O)[nH]c(=O)c2[nH]1
inactive: dose: 12.5 mg/kg/injection, schedule: Q01DX009 (ip), vehicle: saline with Tween-80 111 % of control | dose: 12.5 mg/kg/injection, schedule: Q04DX003 (ip), vehicle: saline with Tween-80 105 % of control | [1] 100 % of control | dose: 25.0 mg/kg/injection, schedule: Q04DX003 (ip), vehicle: saline with Tween-80 108 % of control | [2] 102 % of control | dose: 50.0 mg/kg/injection, schedule: Q04DX003 (ip), vehicle: saline with Tween-80 105 % of control

CCCc1ccc(OC)cc1
inactive: [1] 97 % of control | [2] 105 % of control | dose: 100.0 mg/kg/injection, schedule: Q01DX009 (ip), vehicle: saline with Tween-80 90 % of control

CC(C)(C)C1CCNC(=O)CC1 (stereo unspecified)
inactive: [3] 88 % of control | [4] 94 % of control | dose: 20.0 mg/kg/injection, schedule: Q01DX009 (ip), vehicle: Klucel (hydroxypropylcellulose) (HPC) 97 % of control

CNc1n[n+](-c2ccccc2)no1
inactive: [5] 119 % of control | [6] 124 % of control

O=C1c2ccccc2C(=O)c2c(NCCSCCO)ccc(NCCSCCO)c21
inactive: dose: 16.0 mg/kg/injection, schedule: Q01DX009 (ip), vehicle: Klucel (hydroxypropylcellulose) (HPC) 94 % of control | dose: 32.0 mg/kg/injection, schedule: Q01DX009 (ip), vehicle: Klucel (hydroxypropylcellulose) (HPC) 103 % of control | dose: 64.0 mg/kg/injection, schedule: Q01DX009 (ip), vehicle: Klucel (hydroxypropylcellulose) (HPC) 96 % of control | dose: 128.0 mg/kg/injection, schedule: Q01DX009 (ip), vehicle: Klucel (hydroxypropylcellulose) (HPC) 88 % of control | dose: 256.0 mg/kg/injection, schedule: Q01DX009 (ip), vehicle: Klucel (hydroxypropylcellulose) (HPC) 87 % of control

CC(=O)OCC1OC(n2cc(CBr)nn2)C(OC(C)=O)C(OC(C)=O)C1OC(C)=O (stereo unspecified)
inactive: dose: 3.12 mg/kg/injection, schedule: Q01DX009 (ip), vehicle: Klucel (hydroxypropylcellulose) (HPC) 97 % of control | dose: 6.25 mg/kg/injection, schedule: Q01DX009 (ip), vehicle: Klucel (hydroxypropylcellulose) (HPC) 98 % of control | dose: 12.5 mg/kg/injection, schedule: Q01DX009 (ip), vehicle: Klucel (hydroxypropylcellulose) (HPC) 108 % of control | dose: 25.0 mg/kg/injection, schedule: Q01DX009 (ip), vehicle: Klucel (hydroxypropylcellulose) (HPC) 100 % of control | dose: 50.0 mg/kg/injection, schedule: Q01DX009 (ip), vehicle: Klucel (hydroxypropylcellulose) (HPC) 98 % of control

[Cl][Pt+2][Cl].[NH-]C1CCCC1.[NH-]C1CCCC1
inactive: dose: 2.5 mg/kg/injection, schedule: Q01DX009 (ip), vehicle: Klucel (hydroxypropylcellulose) (HPC) 107 % of control | [3] 117 % of control | [4] 112 % of control | dose: 10.0 mg/kg/injection, schedule: Q01DX009 (ip), vehicle: olive oil, sesame oil, peanut oil 104 % of control | dose: 10.0 mg/kg/injection, schedule: Q01DX009 (ip), vehicle: saline with Tween-80 109 % of control | dose: 10.0 mg/kg/injection, schedule: Q01DX009 (ip), vehicle: saline 110 % of control | dose: 20.0 mg/kg/injection, schedule: Q01DX009 (ip), vehicle: saline with Tween-80 117 % of control | dose: 20.0 mg/kg/injection, schedule: Q01DX009 (ip), vehicle: saline 124 % of control | dose: 40.0 mg/kg/injection, schedule: Q01DX009 (ip), vehicle: saline with Tween-80 117 % of control | dose: 40.0 mg/kg/injection, schedule: Q04DX003 (ip), vehicle: Klucel (hydroxypropylcellulose) (HPC) 108 % of control | dose: 40.0 mg/kg/injection, schedule: Q04DX003 (ip), vehicle: saline 122 % of control | dose: 80.0 mg/kg/injection, schedule: Q01DX001 (ip), vehicle: Klucel (hydroxypropylcellulose) (HPC) 105 % of control | dose: 80.0 mg/kg/injection, schedule: Q01DX001 (ip), vehicle: saline 117 % of control | dose: 80.0 mg/kg/injection, schedule: Q01DX009 (ip), vehicle: Klucel (hydroxypropylcellulose) (HPC) 115 % of control | dose: 80.0 mg/kg/injection, schedule: Q01DX009 (ip), vehicle: saline with Tween-80 109 % of control | dose: 80.0 mg/kg/injection, schedule: Q04DX003 (ip), vehicle: Klucel (hydroxypropylcellulose) (HPC) 105 % of control | dose: 160.0 mg/kg/injection, schedule: Q01DX001 (ip), vehicle: Klucel (hydroxypropylcellulose) (HPC) 117 % of control | dose: 160.0 mg/kg/injection, schedule: Q01DX009 (ip), vehicle: saline 94 % of control | dose: 160.0 mg/kg/injection, schedule: Q04DX003 (ip), vehicle: Klucel (hydroxypropylcellulose) (HPC) 105 % of control | dose: 320.0 mg/kg/injection, schedule: Q01DX001 (ip), vehicle: Klucel (hydroxypropylcellulose) (HPC) 123 % of control | dose: 320.0 mg/kg/injection, schedule: Q04DX003 (ip), vehicle: Klucel (hydroxypropylcellulose) (HPC) 114 % of control | dose: 640.0 mg/kg/injection, schedule: Q04DX003 (ip), vehicle: saline 105 % of control

COC(=O)CC(N)C(=O)O (stereo unspecified)
inactive: [5] 101 % of control | [6] 103 % of control | dose: 50.0 mg/kg/injection, schedule: Q01DX009 (ip), vehicle: saline 113 % of control | dose: 100.0 mg/kg/injection, schedule: Q01DX009 (ip), vehicle: saline 104 % of control | dose: 200.0 mg/kg/injection, schedule: Q01DX009 (ip), vehicle: saline 89 % of control

COc1ccc2nc3cc(Cl)ccc3c(Nc3ccc(O)c(CN(CCCl)CCCl)c3)c2c1
inactive: dose: 0.25 mg/kg/injection, schedule: Q01DX009 (ip), vehicle: saline 104 % of control | dose: 0.5 mg/kg/injection, schedule: Q01DX009 (ip), vehicle: saline 121 % of control | dose: 1.0 mg/kg/injection, schedule: Q01DX009 (ip), vehicle: saline 120 % of control

COc1ccc(NC(=S)NNC(=S)NNc2ccccc2)cc1
inactive: dose: 100.0 mg/kg/injection, schedule: Q04DX003 (ip), vehicle: Klucel (hydroxypropylcellulose) (HPC) 97 % of control | dose: 200.0 mg/kg/injection, schedule: Q04DX003 (ip), vehicle: Klucel (hydroxypropylcellulose) (HPC) 93 % of control | dose: 400.0 mg/kg/injection, schedule: Q04DX003 (ip), vehicle: Klucel (hydroxypropylcellulose) (HPC) 86 % of control

S=C(N=Nc1ccccc1)NNc1ccccc1
inactive: dose: 18.8 mg/kg/injection, schedule: Q04DX003 (ip), vehicle: saline with Tween-80 102 % of control | dose: 18.9 mg/kg/injection, schedule: Q01DX009 (ip), vehicle: saline with Tween-80 88 % of control | dose: 37.5 mg/kg/injection, schedule: Q01DX009 (ip), vehicle: saline with Tween-80 93 % of control | dose: 37.5 mg/kg/injection, schedule: Q04DX003 (ip), vehicle: saline with Tween-80 92 % of control | dose: 75.0 mg/kg/injection, schedule: Q04DX003 (ip), vehicle: saline with Tween-80 92 % of control | dose: 150.0 mg/kg/injection, schedule: Q04DX003 (ip), vehicle: saline with Tween-80 97 % of control

CCCCC(C(=O)OCC)C(CCC1CCCCC1)(C(=O)OCC)C(=O)OCC (stereo unspecified)
inactive: dose: 12.5 mg/kg/injection, schedule: Q04DX003 (ip), vehicle: Klucel (hydroxypropylcellulose) (HPC) 90 % of control | dose: 25.0 mg/kg/injection, schedule: Q04DX003 (ip), vehicle: Klucel (hydroxypropylcellulose) (HPC) 99 % of control | dose: 50.0 mg/kg/injection, schedule: Q04DX003 (ip), vehicle: Klucel (hydroxypropylcellulose) (HPC) 87 % of control and 89 % of control

Oc1c(Cl)cc(Cl)cc1/C=N/NC(=S)Nc1cc(C(F)(F)F)cc(C(F)(F)F)c1
inactive: dose: 50.0 mg/kg/injection, schedule: Q01DX009 (ip), vehicle: olive oil, sesame oil, peanut oil 92 % of control | dose: 200.0 mg/kg/injection, schedule: Q01DX009 (ip), vehicle: olive oil, sesame oil, peanut oil 96 % of control

Cc1ccc(NC(=O)c2ccccc2C(=O)O)cc1Cl
inactive: [7] 94 % of control | [8] 94 % of control

NC(=O)c1ccccc1NC(=O)Nc1ccccc1
inactive: [7] 89 % of control | [8] 91 % of control | dose: 400.0 mg/kg/injection, schedule: Q01DX009 (ip), vehicle: Klucel (hydroxypropylcellulose) (HPC) 89 % of control
